Structures can show the parent of a compound that is named as a salt. Where a SMILES comes first, the peptide text is derived from it. [ ]: non-standard residue; d: D form. pGlu = O=C1CC[C@@H](C(=O)O)N1; Thz = O=C(O)[C@@H]1CSCN1

The subject of one assay is NRG1-ERBB4 signaling. Put plainly: Nrg1-ERBB4-PIK3R1 split TEV co-culture compound screen of the NIH Clinical Collection. The format is cell-based, human. The settings on record: NIH Clinical Collection NCC-003 raw data; compounds ranked by Z-score; 'flagged' given instead of a Z-score.
For `C=C1C[C@@H]2[C@H](CC[C@]3(C)C(=O)CC[C@@H]23)[C@@]2(C)C=CC(=O)C=C12` [EXEMESTANE], the Z-SCORE is listed as -1.23.
The same measure, in the same setting: then `CC(=O)O[C@]1(C(C)=O)CC[C@H]2[C@@H]3C=C(C)C4=CC(=O)CC[C@]4(C)[C@H]3CC[C@@]21C` [MEGESTROL ACETATE], with -1.44.
Still for that read-out and setting: for `O=C1CC[C@@H](C(=O)N2CSC[C@H]2C(=O)O)N1` [PIDOTIMOD] ([pGlu]-[Thz]-OH) the value was -1.2; for `CC(C)/N=c1\cc2n(-c3ccc(Cl)cc3)c3ccccc3nc-2cc1Nc1ccc(Cl)cc1` [CLOFAZIMINE], “flagged”; for `COc1cccc2c1C(=O)c1c(O)c3c(c(O)c1C2=O)C[C@@](O)(C(=O)CO)C[C@@H]3O[C@H]1C[C@H](N)[C@@H](O)[C@H](C)O1` [EPIRUBICIN HYDROCHLORIDE], “flagged”.
On the same count and under the same terms, for `CC(=O)NC[C@H]1CN(c2ccc(N3CCOCC3)c(F)c2)C(=O)O1` [LINEZOLID] the value was -1.43; for `CC(C)(O)c1ccccc1CC[C@@H](SCC1(CC(=O)[O-])CC1)c1cccc(/C=C/c2ccc3ccc(Cl)cc3n2)c1.[Na+]` [MONTELUKAST Na], -1.21.

Still in this assay, the particulars now being: compound screen of the NIH Clinical Collection, sheet raw data NCC-003; compounds ranked by Z-score.
The compound `CC(C)[C@H](N)C(=O)OCCOCn1cnc2c(=O)[nH]c(N)nc21` [VALACICLOVIR HYDROCHLORIDE] displayed a Z-SCORE of 0.49.
On the same count and under the same terms, for `COc1cc(N)c(Cl)cc1C(=O)NC1CN2CCC1CC2` (stereo not shown) [Zacopride] the value was -0.82; for `Cc1c(O)c(=O)ccn1C`, 0.19.
With `C[C@]12CCC(=O)C=C1CC[C@@H]1[C@@H]2C(=O)C[C@@]2(C)[C@H]1CC[C@]2(O)C(=O)CO` [CORTISONE], the Z-SCORE turned out to be 0.26.
Turning to `CC(=O)O[C@H]1C[C@@H]2CC[C@@H]3[C@H](CC[C@@]4(C)[C@H]3C[C@H]([N+]3(C)CCCCC3)[C@@H]4OC(C)=O)[C@@]2(C)C[C@@H]1[N+]1(C)CCCCC1` [Pancuronium], the Z-SCORE is recorded as -0.32.
Still for that read-out and setting: for `Cn1nnc2c(C(N)=O)ncn2c1=O` [TEMOZOLOMIDE] the value was 0.54; for `CCCN1C[C@H](CSC)C[C@@H]2c3cccc4[nH]cc(c34)C[C@H]21` [PERGOLIDE MESYLATE], -0.4; for `CC(Cc1ccccc1)(NC(=O)CN)c1ccccc1` (racemic), 0.97.
Consider `CC(=O)N1CCN(c2ccc(OCC3COC(Cn4ccnc4)(c4ccc(Cl)cc4Cl)O3)cc2)CC1` (stereo not shown) [Ketoconazole], for which the Z-SCORE is given as -1.1.
On the same count and under the same terms, then `Cc1cccc(CCN2CCC(C(=O)c3ccc(NS(C)(=O)=O)cc3)CC2)n1.Cl.Cl`, with -0.17; and `CCOC(=O)C1=C(C)NC(C)=C(C(=O)OCC)C1c1ccccc1/C=C/C(=O)OC(C)(C)C` [LACIDIPINE], with -0.35.
The same measure, in the same setting: then `COc1ccc(C(CN(C)C)C2(O)CCCCC2)cc1` (stereo not shown) [VENLAFAXINE HCl], with 0.54.
Still for that read-out and setting: for `OCc1cc(C(O)CNCCCCCCOCCCCc2ccccc2)ccc1O` (stereo not shown) [Salmeterol] the value was 0.6.
With `CNCC[C@@H](Oc1ccccc1C)c1ccccc1` [ATOMOXETINE HCl], the Z-SCORE came to 0.83.
Same read-out and setting: then `CN1CCCCC1CCN1c2ccccc2Sc2ccc([S+](C)[O-])cc21` (stereo not shown) [Mesoridazine], with -0.53; and `COc1ccc(C2CNC(=O)C2)cc1OC1CCCC1` (stereo not shown) [ROLIPRAM], with 1.06.
On the same count and under the same terms, then `Clc1ccccc1C(c1ccccc1)(c1ccccc1)n1ccnc1` [CLOTRIMAZOLE], with -0.73; and `CCOC(=O)OC(C)OC1=C(C(=O)Nc2ccccn2)N(C)S(=O)(=O)c2ccccc21` (stereo not shown) [AMPIROXICAM], with 0.43.
On the same count and under the same terms, for `Cc1ccnc2c1NC(=O)c1cccnc1N2C1CC1` [Viramune] the value was 0.09; for `CO[C@H]1/C=C/O[C@@]2(C)Oc3c(C)c(O)c4c(O)c(c(/C=N/N5CCN(C6CCCC6)CC5)c(O)c4c3C2=O)NC(=O)/C(C)=C\C=C\[C@H](C)[C@H](O)[C@@H](C)[C@@H](O)[C@@H](C)[C@H](OC(C)=O)[C@@H]1C` [RIFAPENTINE, reference compound], 0.75.
With `CC(CCCCC(=O)Nc1ccc(C(F)(F)F)cc1)NCCc1cnc[nH]1` (stereo not shown) [HTMT], the Z-SCORE is on record as -0.18.
Compound `COc1cc(OC)c(C(=O)CCCN2CCCC2)c(OC)c1.Cl` [Buflomedil HCl] registered a Z-SCORE of 0.75.
Same read-out and setting: for `CS(=O)(=O)c1ccc(C2=C(c3ccccc3)C(=O)OC2)cc1` [ROFECOXIB] the value was 0.81; for `CC1CCN(CCCC(=O)c2ccc(F)cc2)CC1` [Metylperon], 0.36.
On the same count and under the same terms, then `CC[C@@H]1C=CC=CC[C@H](C)[C@@H](O)[C@@H](C)C(=O)[C@H](C)[C@@H](O)[C@H](C)C(=O)[C@H](C)[C@@H](O)[C@H](C)C=CC(=O)O[C@H]2[C@@H](C)[C@@H](CC1)O[C@@]1(CC[C@@H](C)[C@@H](C[C@H](C)O)O1)[C@@H]2C` [[…]], with -0.54; and `CC(C)(C)NC(=O)[C@H]1CC[C@H]2[C@@H]3CC[C@H]4NC(=O)C=C[C@]4(C)[C@H]3CC[C@]12C` [FINASTERIDE], with -0.75; and `CN(CCCN1c2ccccc2CCc2ccccc21)CC(=O)c1ccc(Cl)cc1` [LOFEPRAMINE], with -0.53.
Consider `COC(=O)CCc1ccc(OCC(O)CNC(C)C)cc1` (stereo not shown) [ESMOLOL HYDROCHLORIDE], for which the Z-SCORE is 0.38.
Still for that read-out and setting: then `Oc1ccc(/C=C/c2cc(O)cc(O)c2)cc1` [Resveratrol], with 2.61.
The same measure, in the same setting: for `CC(COc1ccccc1Cc1ccccc1)N1CCCCC1.O=P(O)(O)O` (stereo not shown) [BENPROPERINE PHOSPHATE] the value was -0.08; for `Nc1ncnc2c1ncn2[C@@H]1O[C@H](CO)C[C@H]1O` [3'-Deoxydenosine, reference compound], 5.88.
Still for that read-out and setting: for `COc1ccc2[nH]cc(CCN)c2c1` [5-Methoxytryptamine] the value was 0.65.
With `CCN1CCC[C@H]1CNC(=O)c1cc(S(N)(=O)=O)ccc1OC` [LEVOSULPIRIDE], the Z-SCORE was -0.53.

Still in this assay, the particulars now being: compounds at 10 μM, 24 h; PC12 split TEV assay cells co-cultured with Nrg1-expressing PC12 cells; analysed with cellHTS2.
`CC(=O)OCC[N+](C)(C)C` [Miochol, reference compound] came in with a Z-SCORE of 0.45.
The compound `NC(=O)c1cnccn1` [Pyrazinamide, reference compound] displayed a Z-SCORE of 1.05.
Same read-out and setting: then `Cc1cnc(NC(=O)C2=C(O)c3ccccc3S(=O)(=O)N2C)s1` [Meloxicam, reference compound], with 0.24.
On the same count and under the same terms, for `Cn1cnc([N+](=O)[O-])c1Sc1ncnc2nc[nH]c12` [Azathioprine, reference compound] the value was 0.16.
Same read-out and setting: for `CC(C)NCC(O)COc1cccc2[nH]ccc12` (stereo not shown) [PINDOLOL, reference compound] the value was 6.52; for `CC(=O)[C@@]1(O)CC[C@H]2[C@@H]3C[C@H](C)C4=CC(=O)C=C[C@]4(C)[C@@]3(F)[C@@H](O)C[C@@]21C` [Fluorometholone, reference compound], -0.4.
Compound `CNCCC=C1c2ccccc2CCc2ccccc21` [Pamelor, reference compound] displayed a Z-SCORE of 0.41.
Same read-out and setting: for `COc1cccc2c1C(=O)c1c(O)c3c(c(O)c1C2=O)C[C@@](O)(C(C)=O)C[C@@H]3O[C@H]1C[C@H](N)[C@H](O)[C@H](C)O1` [DAUNORUBICIN HYDROCHLORIDE, reference compound] the value was “flagged”; for `Brc1c(NC2=NCCN2)ccc2nccnc12` [Brimonidine, reference compound], 0.01; for `NNCCc1ccccc1` [Phenelzine, reference compound], -0.21.
Same read-out and setting: for `CO[C@H]1/C=C/O[C@@]2(C)Oc3c(C)c(O)c4c(O)c(c(/C=N/N5CCN(C6CCCC6)CC5)c(O)c4c3C2=O)NC(=O)/C(C)=C\C=C\[C@H](C)[C@H](O)[C@@H](C)[C@@H](O)[C@@H](C)[C@H](OC(C)=O)[C@@H]1C` [RIFAPENTINE, reference compound] the value was 0.91.
On the same count and under the same terms, then `CC(CCc1ccccc1)NCC(O)c1ccc(O)c(C(N)=O)c1` (stereo not shown) [LABETALOL HYDROCHLORIDE, reference compound], with -1.04; and `NS(=O)(=O)c1cc(C2(O)NC(=O)c3ccccc32)ccc1Cl` (stereo not shown) [Chlorthalidone, reference compound], with 0.87; and `CC(C)(C(=O)O)c1ccc(C(O)CCCN2CCC(C(O)(c3ccccc3)c3ccccc3)CC2)cc1` (stereo not shown) [Allegra, reference compound], with -0.84.
With `CN(C)C(=O)Oc1ccc[n+](C)c1` [Mestinon, reference compound], the Z-SCORE is reported as -0.37.
Same read-out and setting: for `COC(=O)[C@H](c1ccccc1Cl)N1CCc2sccc2C1` [clopidogrel, reference compound] the value was -0.3.
On to `O=C(O)CCCc1ccc(N(CCCl)CCCl)cc1` [CHLORAMBUCIL, reference compound], for which the Z-SCORE stood at 0.14.
`Cc1ccc(N(CC2=NCCN2)c2cccc(O)c2)cc1` [PHENTOLAMINE HCL, reference compound]: the Z-SCORE is on record as -1.17.
Same read-out and setting: for `CCCNC(C)C(=O)Nc1ccccc1C` (stereo not shown) [PRILOCAINE HYDROCHLORIDE, reference compound] the value was 0.68; for `Nc1ncnc2c1ncn2[C@@H]1O[C@H](CO)C[C@H]1O` [3'-Deoxydenosine, reference compound], 5.88; for `CCCCNC(=O)NS(=O)(=O)c1ccc(C)cc1` [Tolbutamide, reference compound], 0.32.
Same read-out and setting: for `CC1(C)S[C@@H]2[C@H](NC(=O)Cc3ccccc3)C(=O)N2[C@H]1C(=O)O` [Pfizerpen, reference compound] the value was -0.19; for `OC(Cn1cncn1)(Cn1cncn1)c1ccc(F)cc1F` [Fluconazole, reference compound], 0.28; for `Cc1cc(NS(=O)(=O)c2ccc(N)cc2)no1` [Sulfamethoxazole, reference compound], 0.87.
The same measure, in the same setting: for `OCCN1CCN(CCCN2c3ccccc3Sc3ccc(Cl)cc32)CC1` [PERPHENAZINE, reference compound] the value was 0.23.
`CCC(C)(C)C(=O)O[C@H]1C[C@@H](C)C=C2C=C[C@H](C)[C@H](CC[C@@H]3C[C@@H](O)CC(=O)O3)[C@H]21` [Simvastatin, reference compound]: the Z-SCORE entry is “flagged”.
On the same count and under the same terms, for `CC(C(=O)O)c1cccc(C(=O)c2ccccc2)c1` (stereo not shown) [KETOPROFEN, reference compound] the value was 0.15.
